Assay results taken from ChEMBL document CHEMBL1147293, “Immunosuppressive compounds from a deep water marine sponge, Agelas flabelliformis” (J Nat Prod, 1989).

Key:
[1] = Cytotoxicity against mouse splenocytes assessed as cell viability at 62.5 ug/ml after 88 hrs by MTT assay; type: cell-based, Splenocyte; conditions: read-out: Activity
Splenocyte [2] = assay: Immunosuppressive activity against concanavalin A-activated mouse splenocytes assessed as [3H]thymidine incorporation at 7.8 ug/ml after 72 hrs by liquid scintillation counting; type: functional
Splenocyte [3] = assay: Immunosuppressive activity against mouse splenocytes assessed as [3H]thymidine incorporation at 1.0 ug/ml after 88 hrs by liquid scintillation counting; type: functional
Splenocyte [4] = assay: Immunosuppressive activity against mouse splenocytes assessed as [3H]thymidine incorporation at 7.8 ug/ml after 88 hrs by liquid scintillation counting; type: functional
[5] = Cytotoxicity against mouse splenocytes assessed as cell viability at 1.0 ug/ml after 88 hrs by MTT assay; type: cell-based, Splenocyte; conditions: read-out: Activity
Splenocyte [6] = assay: Immunosuppressive activity against concanavalin A-activated mouse splenocytes assessed as [3H]thymidine incorporation at 0.5 ug/ml after 72 hrs by liquid scintillation counting; type: functional
[7] = Cytotoxicity against mouse splenocytes assessed as cell viability at 31.3 ug/ml after 88 hrs by MTT assay; type: cell-based, Splenocyte; conditions: read-out: Activity
Splenocyte [8] = assay: Immunosuppressive activity against mouse splenocytes assessed as [3H]thymidine incorporation at 250 ug/ml after 88 hrs by liquid scintillation counting; type: functional
Splenocyte [9] = assay: Immunosuppressive activity against concanavalin A-activated mouse splenocytes assessed as [3H]thymidine incorporation at 1.0 ug/ml after 72 hrs by liquid scintillation counting; type: functional
Splenocyte [10] = assay: Immunosuppressive activity against concanavalin A-activated mouse splenocytes assessed as [3H]thymidine incorporation at 31.3 ug/ml after 72 hrs by liquid scintillation counting; type: functional
Splenocyte [11] = assay: Immunosuppressive activity against concanavalin A-activated mouse splenocytes assessed as [3H]thymidine incorporation at 3.9 ug/ml after 72 hrs by liquid scintillation counting; type: functional
Splenocyte [12] = assay: Immunosuppressive activity against concanavalin A-activated mouse splenocytes assessed as [3H]thymidine incorporation at 62.5 ug/ml after 72 hrs by liquid scintillation counting; type: functional
Splenocyte [13] = assay: Immunosuppressive activity against mouse splenocytes assessed as [3H]thymidine incorporation at 125 ug/ml after 88 hrs by liquid scintillation counting; type: functional
[14] = Cytotoxicity against mouse splenocytes assessed as cell viability at 2.0 ug/ml after 88 hrs by MTT assay; type: cell-based, Splenocyte; conditions: read-out: Activity
Splenocyte [15] = assay: Immunosuppressive activity against concanavalin A-activated mouse splenocytes assessed as [3H]thymidine incorporation at 0.3 ug/ml after 72 hrs by liquid scintillation counting; type: functional
[16] = Cytotoxicity against mouse splenocytes assessed as cell viability at 0.5 ug/ml after 88 hrs by MTT assay; type: cell-based, Splenocyte; conditions: read-out: Activity
Splenocyte [17] = assay: Immunosuppressive activity against mouse splenocytes assessed as [3H]thymidine incorporation at 62.5 ug/ml after 88 hrs by liquid scintillation counting; type: functional
Splenocyte [18] = assay: Immunosuppressive activity against mouse splenocytes assessed as [3H]thymidine incorporation at 0.5 ug/ml after 88 hrs by liquid scintillation counting; type: functional
[19] = Cytotoxicity against mouse splenocytes assessed as cell viability at 0.3 ug/ml after 88 hrs by MTT assay; type: cell-based, Splenocyte; conditions: read-out: Activity
[20] = Cytotoxicity against mouse splenocytes assessed as cell viability at 500 ug/ml after 88 hrs by MTT assay; type: cell-based, Splenocyte; conditions: read-out: Activity
[21] = Cytotoxicity against mouse splenocytes assessed as cell viability at 3.9 ug/ml after 88 hrs by MTT assay; type: cell-based, Splenocyte; conditions: read-out: Activity
Splenocyte [22] = assay: Immunosuppressive activity against mouse splenocytes assessed as [3H]thymidine incorporation at 31.3 ug/ml after 88 hrs by liquid scintillation counting; type: functional
Splenocyte [23] = assay: Immunosuppressive activity against concanavalin A-activated mouse splenocytes assessed as [3H]thymidine incorporation at 125 ug/ml after 72 hrs by liquid scintillation counting; type: functional
Splenocyte [24] = assay: Immunosuppressive activity against concanavalin A-activated mouse splenocytes assessed as [3H]thymidine incorporation at 2.0 ug/ml after 72 hrs by liquid scintillation counting; type: functional
Splenocyte [25] = assay: Immunosuppressive activity against mouse splenocytes assessed as [3H]thymidine incorporation at 3.9 ug/ml after 88 hrs by liquid scintillation counting; type: functional
[26] = Cytotoxicity against mouse splenocytes assessed as cell viability at 125 ug/ml after 88 hrs by MTT assay; type: cell-based, Splenocyte; conditions: read-out: Activity
[27] = Cytotoxicity against mouse splenocytes assessed as cell viability at 7.8 ug/ml after 88 hrs by MTT assay; type: cell-based, Splenocyte; conditions: read-out: Activity
Splenocyte [28] = assay: Immunosuppressive activity against concanavalin A-activated mouse splenocytes assessed as [3H]thymidine incorporation at 250 ug/ml after 72 hrs by liquid scintillation counting; type: functional
Splenocyte [29] = assay: Immunosuppressive activity against concanavalin A-activated mouse splenocytes assessed as [3H]thymidine incorporation at 500 ug/ml after 72 hrs by liquid scintillation counting; type: functional
Splenocyte [30] = assay: Immunosuppressive activity against mouse splenocytes assessed as [3H]thymidine incorporation at 15.6 ug/ml after 88 hrs by liquid scintillation counting; type: functional
Splenocyte [31] = assay: Immunosuppressive activity against mouse splenocytes assessed as [3H]thymidine incorporation at 500 ug/ml after 88 hrs by liquid scintillation counting; type: functional
[32] = Cytotoxicity against mouse splenocytes assessed as cell viability at 250 ug/ml after 88 hrs by MTT assay; type: cell-based, Splenocyte; conditions: read-out: Activity
[33] = Cytotoxicity against mouse splenocytes assessed as cell viability at 15.6 ug/ml after 88 hrs by MTT assay; type: cell-based, Splenocyte; conditions: read-out: Activity
Splenocyte [34] = assay: Immunosuppressive activity against mouse splenocytes assessed as [3H]thymidine incorporation at 2.0 ug/ml after 88 hrs by liquid scintillation counting; type: functional
Splenocyte [35] = assay: Immunosuppressive activity against concanavalin A-activated mouse splenocytes assessed as [3H]thymidine incorporation at 15.6 ug/ml after 72 hrs by liquid scintillation counting; type: functional
Splenocyte [36] = assay: Immunosuppressive activity against mouse splenocytes assessed as [3H]thymidine incorporation at 0.25 ug/ml after 88 hrs by liquid scintillation counting; type: functional
[37] = Cytotoxicity against mouse splenocytes assessed as cell viability at 0.25 ug/ml after 88 hrs by MTT assay; type: cell-based, Splenocyte; conditions: read-out: Activity

| SMILES | viability at 88 h, 62.5 ug/ml [1] | Activity (Splenocyte [3]) | Activity (Splenocyte [4]) | viability at 88 h, 1 ug/ml [5] | viability at 88 h, 31.3 ug/ml [7] | Activity (Splenocyte [8]) | Activity (Splenocyte [13]) | viability at 88 h, 2 ug/ml [14] | viability at 88 h, 0.5 ug/ml [16] | Activity (Splenocyte [17]) | Activity (Splenocyte [18]) | viability at 88 h, 500 ug/ml [20] | viability at 88 h, 3.9 ug/ml [21] | Activity (Splenocyte [22]) | Activity (Splenocyte [25]) | viability at 88 h, 125 ug/ml [26] | viability at 88 h, 7.8 ug/ml [27] | Activity (Splenocyte [30]) | Activity (Splenocyte [31]) | viability at 88 h, 250 ug/ml [32] | also measured |
| --- | --- | --- | --- | --- | --- | --- | --- | --- | --- | --- | --- | --- | --- | --- | --- | --- | --- | --- | --- | --- | --- |
| O=C(O)c1cc(Br)c(Br)[nH]1 | 27% | 13% | 40% | 95% | 27% | 100% | 100% | 99% | 113% | 100% | 0% | 10% | 80% | 100% | 59% | 12% | 99% | 100% | 100% | 0% | Activity (Splenocyte [2]): 64%; Activity (Splenocyte [6]): 39%; Activity (Splenocyte [9]): 43%; Activity (Splenocyte [10]): 83%; Activity (Splenocyte [11]): 70%; Activity (Splenocyte [12]): 83%; Activity (Splenocyte [15]): 50%; viability at 88 h, 0.3 ug/ml [19]: 100%; Activity (Splenocyte [23]): 83%; Activity (Splenocyte [24]): 29%; Activity (Splenocyte [28]): 99%; Activity (Splenocyte [29]): 83%; viability at 88 h, 15.6 ug/ml [33]: 66%; Activity (Splenocyte [34]): 31%; Activity (Splenocyte [35]): 84% |
| CC(C)CCC[C@@H](C)[C@H]1CC[C@H]2C3=C(CC[C@]12C)[C@@]1(C)CC[C@H](O)[C@@H](C)[C@@H]1CC3 | 72% | 81% | 100% | 97% | 85% | 100% | 100% | 77% | 118% | 100% | 46% | 6% | 99% | 100% | 100% | 28% | 80% | 100% | 100% | 10% | Activity (Splenocyte [36]): 0%; viability at 88 h, 0.25 ug/ml [37]: 104%; viability at 88 h, 15.6 ug/ml [33]: 92%; Activity (Splenocyte [34]): 100% |
